# Assays:
# Muscarinic M3 Receptor [1] = target: T1, Muscarinic M3 Receptor (Rattus norvegicus, UniProt P08483); assay: Bronchodilation in rats (i.v.), inhibition of acetylcholine-induced increase in airway resistance; assay type: in vivo; settings: iv, 5 min, acetylcholine 50 μg/kg i.v. 5 minutes after test compound, read-out: Inhibition of Airway Contraction ED50 iv
# T1 construct: male rats of the Sprague-Dawley strain; from tissue; host or cells: airways of living male Sprague-Dawley rats (in vivo)
# T1 sequence (P08483 whole entry): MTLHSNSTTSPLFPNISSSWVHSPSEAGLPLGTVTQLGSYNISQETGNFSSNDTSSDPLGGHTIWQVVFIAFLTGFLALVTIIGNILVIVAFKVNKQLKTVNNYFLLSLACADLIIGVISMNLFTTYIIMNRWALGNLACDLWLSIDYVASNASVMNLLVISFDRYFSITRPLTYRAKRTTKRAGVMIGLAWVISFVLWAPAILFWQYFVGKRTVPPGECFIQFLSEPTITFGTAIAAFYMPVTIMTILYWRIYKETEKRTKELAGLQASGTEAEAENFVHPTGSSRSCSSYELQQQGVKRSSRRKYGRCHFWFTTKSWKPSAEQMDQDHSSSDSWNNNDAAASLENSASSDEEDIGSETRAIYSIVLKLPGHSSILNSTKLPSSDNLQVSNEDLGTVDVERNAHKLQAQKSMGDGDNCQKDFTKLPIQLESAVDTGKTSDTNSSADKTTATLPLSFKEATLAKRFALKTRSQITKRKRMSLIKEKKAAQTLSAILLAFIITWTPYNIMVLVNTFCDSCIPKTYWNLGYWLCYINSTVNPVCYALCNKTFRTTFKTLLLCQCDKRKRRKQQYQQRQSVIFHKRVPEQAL
# Experimental: (§1) Tests for Antagonism Against Muscarinic M3 Receptor (in vivo)
# 1-A) Tests for Bronchodilation in Rats (i.v.).
# Eight- to eleven-weeks-old male rats of the Sprague-Dawley strain, weighing 380-420 g, were anesthetized with urethane (750 mg/kg. i.p.) and α-chloralose (37.5 mg/kg, i.p.). The bronchus of each rat was intubated, and the right jugular vein was cannulated for drug administration. […] To evoke an increase in airway resistance, acetylcholine (50 μg/kg, i.v.) was administered to the animals. The acetylcholine-induced airway resistance increase was measured 5 minutes before and 5 minutes after administration of test compound, and the ratio of the airway resistance of the latter to the former was calculated. In controls, isotonic sodium chloride solution was used in place of the test compounds and otherwise identical procedures were repeated, the calculated ratio being set to be 100%.
# Muscarinic M3 receptor [2] = target: T2, Muscarinic M3 receptor (Homo sapiens, UniProt P20309); assay: Inhibition of binding of [3H]-N-methylscopolamine to muscarinic M3 receptor
# T2 construct: purchased Receptor Biology, Inc; host or cells: CHO cells (membranes)
# T2 sequence (P20309 whole entry): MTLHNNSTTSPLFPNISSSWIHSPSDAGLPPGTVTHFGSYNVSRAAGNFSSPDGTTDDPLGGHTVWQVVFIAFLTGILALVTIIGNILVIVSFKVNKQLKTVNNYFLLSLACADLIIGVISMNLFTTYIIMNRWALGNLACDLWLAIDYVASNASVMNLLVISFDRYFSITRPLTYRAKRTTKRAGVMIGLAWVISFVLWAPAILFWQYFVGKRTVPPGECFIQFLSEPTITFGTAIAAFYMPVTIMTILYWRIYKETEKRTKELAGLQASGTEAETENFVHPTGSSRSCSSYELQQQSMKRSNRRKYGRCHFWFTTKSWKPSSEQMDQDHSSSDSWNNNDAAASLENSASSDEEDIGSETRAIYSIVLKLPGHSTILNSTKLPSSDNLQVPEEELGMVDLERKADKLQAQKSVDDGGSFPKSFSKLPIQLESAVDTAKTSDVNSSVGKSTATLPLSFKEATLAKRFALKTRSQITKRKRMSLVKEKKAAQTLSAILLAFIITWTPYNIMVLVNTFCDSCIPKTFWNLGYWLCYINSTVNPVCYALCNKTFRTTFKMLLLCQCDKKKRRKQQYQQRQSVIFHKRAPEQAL
# Experimental: (§2) Tests on Inhibition of Binding to Muscarinic Receptors
# (§3) These tests were performed according to a modification of the method of Hargreaves et al. (Br. J. Pharmacol. 107: 494-501, 1992). Membranes from CHO cells expressing cloned human m1-m5 (Receptor Biology, Inc.) were incubated with 0.2 nM [^3 H]-N-methylscopolamine and each a compound of the present invention to be tested in 0.5 ml of 50 mM Tris-HCl-10 mM MgCl2 -1 mM EDTA (pH 7.4) for 2 hours at 25° C. Free and membrane-bound [^3 H]-N-methylscopolamine were separated by filtration over glass filters (UniFilter-GF/C; Packard Instruments Co., Inc.) using cell harvester (Filtermate™ 196; Packard Instruments Co., Inc.). Then the filter was washed four times with 1 ml of ice-cold Tris-HCl (pH 7.4) and dried at 50° C. After adding a scintillator (Microscinti 0; Packard Instruments Co., Inc.), the radioactivity was counted by a liquid scintillation counter (TopCount™; Packard Instruments Co., Inc.). Non-specific binding was measured in the presence of 1 μM N-methylscopolamine.
# Muscarinic M3 Receptor [3] = target: T1, Muscarinic M3 Receptor; assay: Bronchodilation in rats (p.o.), inhibition of acetylcholine-induced increase in airway resistance; assay type: in vivo; settings: po, 1 h, acetylcholine 50 μg/kg i.v. 60 minutes after test compound, read-out: Inhibition of Airway Contraction ED50 po
# Experimental: as §1
# 1-B) Tests for Bronchodilation in Rats (p.o.)
# Eight- to eleven-weeks-old male rats of Sprague-Dawley strain weighing 380-420 g were orally administered with a test compound. The rats were treated in the identical manner as in the i.v. test, starting 30 minutes after the administration, and their airway resistance values were measured. The acetylcholine-(50 μg/kg, i.v.) induced airway resistance increase were measured 60 minutes after the administration of test compounds. In controls, isotonic sodium chloride solution was used in place of the test compounds and otherwise identical procedures were repeated, the ratio between the two airway resistance values whereby being set to be 100%.
# Muscarinic M3 Receptor [4] = assay: Bronchodilation in dogs (p.o.), methacholine provocation test; assay type: in vivo, dog; settings: beagle dogs, 1 mg/kg p.o., 4 hours after administration
# Experimental: as §1
# 2) Tests for Bronchodilation in Dogs (p.o.)
# Twelve- to twenty-four-months-old male beagle dogs (weighing 10-15 kg) were anesthetized with pentobarbital (30 mg/kg, i.v.) and intubated in their bronchus. Their airway sensitivity to inhaled methacholine were measured at least twice at two-weeks interval, and the dogs showing a reproducible methacholine reaction threshold values^1) ware selected. To those dogs whose methacholine reaction threshold value had been confirmed, the test compounds were orally administered (1 mg/kg). Four hours after the administration, the methacholine provocation test was conducted, and then the methacholine reaction threshold value^2) after administration of the test compound was obtained.
# The bronchodilator activity of the test compound was determined following equation: [formula]
# The methacholine provocation test was conducted using Astograph TCK-6100H Model (Chest). Methacholine chloride was used as bronchoconstritor, which was diluted with isotonic sodium chloride solution in 10-grade concentration levels starting from 40,000 μg/ml, as 20,000, 10,000, 5,000, 2,500, 1,250, 625, 312.5, 156 and 78 μg/ml. These methacholine aerosols were inhaled to the test animal each for 1 min, starting from the lowest concentration level, and respiration resistance was continuously recorded. The concentration level at which the respiration resistance reached twice the initial value was recorded as the methacholine threshold value.
# Muscarinic M2 receptor = target: T3, Muscarinic M2 receptor (Homo sapiens, UniProt P08172); assay: Inhibition of binding of [3H]-N-methylscopolamine to muscarinic M2 receptor; settings: CHO cell membranes expressing cloned human receptor; 0.2 nM [3H]-N-methylscopolamine, pH 7.4, 2 hours, 25° C; read-out: Ki M2 (inhibitory effects on binding to muscarinic M2 receptor)
# T3 construct: purchased Receptor Biology, Inc; host or cells: CHO cells (membranes)
# T3 sequence (P08172 1-466): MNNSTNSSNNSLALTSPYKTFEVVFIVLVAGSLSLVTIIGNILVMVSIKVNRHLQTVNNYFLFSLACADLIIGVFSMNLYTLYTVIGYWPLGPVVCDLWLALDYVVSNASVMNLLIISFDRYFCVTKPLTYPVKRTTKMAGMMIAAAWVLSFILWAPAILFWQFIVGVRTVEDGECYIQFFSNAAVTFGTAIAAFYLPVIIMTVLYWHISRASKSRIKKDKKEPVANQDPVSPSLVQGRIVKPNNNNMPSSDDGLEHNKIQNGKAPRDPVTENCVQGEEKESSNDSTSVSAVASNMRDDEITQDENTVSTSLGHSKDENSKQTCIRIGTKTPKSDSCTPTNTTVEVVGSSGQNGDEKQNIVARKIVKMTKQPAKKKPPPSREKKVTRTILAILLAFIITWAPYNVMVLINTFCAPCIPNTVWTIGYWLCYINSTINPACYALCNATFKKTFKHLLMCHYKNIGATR
# Experimental: as §2, §3
smiles,measurement,setting,value
"COc1cc(CN2CCC(NC(=O)[C@](O)(c3ccccc3)[C@@H]3CCC(F)(F)C3)CC2)ccc1N [Example 26, (2R)-N-[1-(4-amino-3-methoxybenzyl)piperidin-4-yl]-2-[(1R)-3,3-difluorocyclopentyl]-2-hydroxy-2-phenylacetamide]",ED50,Muscarinic M3 Receptor [1],0.37 mg/kg
same,Ki,"Muscarinic M3 receptor [2]; CHO cell membranes expressing cloned human receptor, 0.2 nM [3H]-N-methylscopolamine, pH 7.4, 2 hours, 25° C, read-out: Ki M3 (inhibitory effects on binding to muscarinic M3 receptor)",0.022 µM
same,M2/M3 (ratio of binding Ki),"Muscarinic M3 receptor [2]; selectivity ratio of Ki values, binding",1100
same,ED50,Muscarinic M3 Receptor [3],0.95 mg/kg
same,Methacholine Inhalation-inducing Test shift value (after 4 hrs.),Muscarinic M3 Receptor [4],> 64
same,Ki,Muscarinic M2 receptor,24 µM

# From patent US5948792A, “Fluorine-containing 1,4-disubstituted piperidine derivatives” (Banyu Pharmaceutical Co., Ltd., priority 1996, dated 1999)
